Values joined by “and” are separate entries in the source; they are usually repeats but may differ in a detail not shown here. Identical values can stand only once. Like-named read-outs stand apart in the source and are kept apart here.
Legend:
HeLaS3 cells [1] = conditions: liposome with DOPE, 0.5 μg pCMVβ
Protocol: (§1) Without sonication, liposomes were prepared at 60° C. by combining DOPE with one of the following:
(§2) The resulting liposomes were used to transfect HeLaS3 and Huh7 cells in vitro with the reporter plasmid pCMVβ (Clontech). Transfection efficiency values, obtained by taking OD measurements after cell-lysis and β-Gal activity assay, were compared to efficiencies obtained in parallel with a commercially available liposome-preparation (Lipofectamine, Gibco LTI) and given as percentage of Lipofectamine efficiency. In each transfection, 0.5 μg of pCMVβ (isolated with EndoFree, QIAGEN) was used per well of a 96 well plate. The DNA was diluted to 50 μl with DMEM medium (Gibco LTI) and combined with 1, 2, 3 and 4 μl of the liposome preparations subsequently diluted to 50 μl with DMEM medium. DNA and liposome solutions were mixed and applied to the cells for 6 hours at 37° C., 5% CO2. Afterwards, medium was changed to DMEM containing 10% fetal calf serum. Cells were lysed after 48 h incubation at 37° C., 5% CO2.
(§3) Twofold determinations each were performed. The values were averaged and the highest efficiency (optimum) within a row was given as percentage value of the highest efficiency (optimum) obtained with Lipofectamine.

Huh7 cells [2] = conditions: liposome with DOPE, 0.5 μg pCMVβ
Protocol: as §1, §2, §3

HeLaS3 cells [3] = assay: Transfection of HeLaS3 cells with pCMVβ, β-Gal activity assay (variation of counter ion); assay type: cell-based; conditions: 10-2-10 cytofectin with the given counter ion, liposome with DOPE, 0.5 μg pCMVβ
Protocol: Liposomes were used to transfect HeLaS3 cells in vitro with the reporter plasmid pCMVβ (Clontech). […] Cells were incubated for 48 hours at 37° C., 5% CO2 and then lysed.
In similar studies in HeLaS3 cells, the same vector was transfected with liposomes comprising bromide counter ions and the cytofectin, 10-2-10 Ethandiyl-1,2-bis(decyl dimethylammonium).

Huh7 cells [4] = system: Huh7 cells
Protocol: The resulting liposomes were used to transfect Huh7 cells in vitro with the reporter plasmid pCMVβ (Clontech). Transfection efficiencies, as obtained by OD measurements after cell-lysis and β-Gal activity assay, were compared to efficiencies obtained in parallel with a commercially available liposome-preparation (Lipofectamine, Gibco LTI) and given as percentage of Lipofectamine efficiency. For each transfection, 0.5 μg of pCMVβ (isolated with EndoFree, QIAGEN) was used per well of a 96 well plate. The DNA was diluted to 50 μl with DMEM medium (Gibco LTI) and combined with 1, 2, 3 and 4 μl of the liposome preparations subsequently diluted to 50 μl with DMEM medium. DNA and liposome solutions were mixed and applied to the cells for 6 hours at 37° C., 5% CO2. Afterwards, medium was changed to DMEM containing 10% fetal calf serum. Cells were lysed after 48 h incubation at 37° C., 5% CO2. Twofold determinations each were performed. The values were averaged and the highest efficiency (optimum) within a row was given as percentage value of the highest efficiency (optimum) obtained with Lipofectamine.

HeLaS3 cells [5] = assay: Transfection of HeLaS3 cells with pCMVβ, β-Gal activity assay (cytofectins having three ammonium groups); assay type: cell-based; conditions: liposome with DOPE, 0.5 μg pCMVβ
Protocol: (§4) N,N′,N″-trialkyl-N,N,N′,N″,N″-pentamethyl-bis-(2-ammonioethyl)ammoniumbromide Liposomes comprising compound (3) [synthesis according to Example 1B] and DOPE were prepared at 60° C., using DOPE without sonication.
(§5) Cells were incubated for 48 hours at 37° C., 5% CO2 and then lysed.
(§6) The results below (Table 7) indicate the optimal transfection efficiency of the reporter plasmid pCMVβ using the above-mentioned liposomes as a percentage of the highest transfection efficiency obtained by Lipofectamine. R indicates the number of carbons in the alkyl chain. Concentration of DOPE in each liposome may be calculated by multiply the X(DOPE) value by […].

COS7 cells = assay: Transfection of COS7 cells with pCMVβ, β-Gal activity assay (cytofectins having three ammonium groups); assay type: cell-based; conditions: liposome with DOPE, 0.5 μg pCMVβ
Protocol: as §4, §5, §6

[6] = X(DOPE) 0.50, without sonication
[7] = X(DOPE) 0.60, without sonication
[8] = X(DOPE) 0.70, without sonication
[9] = X(DOPE) 0.80, without sonication
[10] = Huh7, liposome with DOPE, X(DOPE) 0.50, without sonication, 0.5 μg pCMVβ
[11] = Huh7, liposome with DOPE, X(DOPE) 0.60, without sonication, 0.5 μg pCMVβ
[12] = Huh7, liposome with DOPE, X(DOPE) 0.70, without sonication, 0.5 μg pCMVβ
[13] = Huh7, liposome with DOPE, X(DOPE) 0.80, without sonication, 0.5 μg pCMVβ
[14] = X(DOPE) 0.5, without sonication
[15] = X(DOPE) 0.6, without sonication
[16] = X(DOPE) 0.7, without sonication
[17] = X(DOPE) 0.8, without sonication

In the case of Br [10-2-10, Ethanediyl-1,2-bis(decyldimethylammonium bromide)], the “Results (%) HeLaS3 (transfection efficiency as percentage of Lipofectamine efficiency)” value (HeLaS3 cells [1]; [6]) was 216%, the “Results (%) HeLaS3 (transfection efficiency as percentage of Lipofectamine efficiency)” value (HeLaS3 cells [1]; [7]) was 286% and the “Results (%) HeLaS3 (transfection efficiency as percentage of Lipofectamine efficiency)” value (HeLaS3 cells [1]; [8]) was 165%. For the same compound, the “Results (%) HeLaS3 (transfection efficiency as percentage of Lipofectamine efficiency)” value (HeLaS3 cells [1]; [9]) was 178%, the “Results (%) Huh7 (transfection efficiency as percentage of Lipofectamine efficiency)” value (Huh7 cells [2]; [6]) was 142% and the “Results (%) Huh7 (transfection efficiency as percentage of Lipofectamine efficiency)” value (Huh7 cells [2]; [7]) was 127%. For the same compound, the “Results (%) Huh7 (transfection efficiency as percentage of Lipofectamine efficiency)” value (Huh7 cells [2]; [8]) was 111%, the “Results (%) Huh7 (transfection efficiency as percentage of Lipofectamine efficiency)” value (Huh7 cells [2]; [9]) was 115% and the “Results (%) (optimal transfection efficiency as percentage of the highest efficiency obtained by Lipofectamine)” value (HeLaS3 cells [3]; [6]) was 216%. The “Results (%) (optimal transfection efficiency as percentage of the highest efficiency obtained by Lipofectamine)” value (HeLaS3 cells [3]; [7]) was 286%, the “Results (%) (optimal transfection efficiency as percentage of the highest efficiency obtained by Lipofectamine)” value (HeLaS3 cells [3]; [8]) was 165% and the “Results (%) (optimal transfection efficiency as percentage of the highest efficiency obtained by Lipofectamine)” value (HeLaS3 cells [3]; [9]) was 178%. For the same compound, the “Result (%) (transfection efficiency as percentage of Lipofectamine efficiency)” value (Huh7 cells [4]) was 111% and 115%, the “Result (%) (transfection efficiency as percentage of Lipofectamine efficiency)” value (Huh7 cells [4]; [10]) was 142% and the “Result (%) (transfection efficiency as percentage of Lipofectamine efficiency)” value (Huh7 cells [4]; [11]) was 127%.
“Ethanediyl-1,2-bis(dodecyl dimethylammonium bromide) [12-2-12]” was tested, and the “Result (%) (transfection efficiency as percentage of Lipofectamine efficiency)” value (Huh7 cells [4]; [10]) was 70%, the “Result (%) (transfection efficiency as percentage of Lipofectamine efficiency)” value (Huh7 cells [4]; [11]) was 127% and the “Result (%) (transfection efficiency as percentage of Lipofectamine efficiency)” value (Huh7 cells [4]; [12]) was 138%. For the same compound, the “Result (%) (transfection efficiency as percentage of Lipofectamine efficiency)” value (Huh7 cells [4]; [13]) was 89%.
With “Ethanediyl-1,2-bis(octadecyl dimethylammonium bromide) [18-2-18]” the “Result (%) (transfection efficiency as percentage of Lipofectamine efficiency)” value (Huh7 cells [4]; [10]) was 82%, the “Result (%) (transfection efficiency as percentage of Lipofectamine efficiency)” value (Huh7 cells [4]; [11]) was 68% and the “Result (%) (transfection efficiency as percentage of Lipofectamine efficiency)” value (Huh7 cells [4]; [12]) was 105%. The “Result (%) (transfection efficiency as percentage of Lipofectamine efficiency)” value (Huh7 cells [4]; [13]) was 115%.
In the case of CCCCCCCCCCCC[N+](C)(C)CC[N+](C)(CCCCCCCCCCCC)CC[N+](C)(C)CCCCCCCCCCCC.[Br-].[Br-].[Br-] [R = 12, N,N′,N″-tridodecyl-N,N,N′,N″,N″-pentamethyl-bis-(2-ammonioethyl)-ammoniumbromide], the “Results HeLaS3 (%) (optimal transfection efficiency as percentage of the highest efficiency obtained by Lipofectamine)” value (HeLaS3 cells [5]; [14]) was 0%, the “Results HeLaS3 (%) (optimal transfection efficiency as percentage of the highest efficiency obtained by Lipofectamine)” value (HeLaS3 cells [5]; [15]) was 9% and the “Results HeLaS3 (%) (optimal transfection efficiency as percentage of the highest efficiency obtained by Lipofectamine)” value (HeLaS3 cells [5]; [16]) was 17%. The “Results HeLaS3 (%) (optimal transfection efficiency as percentage of the highest efficiency obtained by Lipofectamine)” value (HeLaS3 cells [5]; [17]) was 63%, the “Results COS7 (%) (optimal transfection efficiency as percentage of the highest efficiency obtained by Lipofectamine)” value (COS7 cells; [14]) was 3% and the “Results COS7 (%) (optimal transfection efficiency as percentage of the highest efficiency obtained by Lipofectamine)” value (COS7 cells; [15]) was 5%. For the same compound, the “Results COS7 (%) (optimal transfection efficiency as percentage of the highest efficiency obtained by Lipofectamine)” value (COS7 cells; [16]) was 8% and the “Results COS7 (%) (optimal transfection efficiency as percentage of the highest efficiency obtained by Lipofectamine)” value (COS7 cells; [17]) was 29%.
For “Ethanediyl-1,2-bis(tetradecyl dimethylammonium bromide) [14-2-14]”, the “Result (%) (transfection efficiency as percentage of Lipofectamine efficiency)” value (Huh7 cells [4]; [10]) was 48%, the “Result (%) (transfection efficiency as percentage of Lipofectamine efficiency)” value (Huh7 cells [4]; [11]) was 74% and the “Result (%) (transfection efficiency as percentage of Lipofectamine efficiency)” value (Huh7 cells [4]; [12]) was 98%. The “Result (%) (transfection efficiency as percentage of Lipofectamine efficiency)” value (Huh7 cells [4]; [13]) was 157%.
For “Ethanediyl-1,2-bis(hexadecyl dimethylammonium bromide) [16-2-16]”, the “Result (%) (transfection efficiency as percentage of Lipofectamine efficiency)” value (Huh7 cells [4]; [10]) was 104%, the “Result (%) (transfection efficiency as percentage of Lipofectamine efficiency)” value (Huh7 cells [4]; [11]) was 124% and the “Result (%) (transfection efficiency as percentage of Lipofectamine efficiency)” value (Huh7 cells [4]; [12]) was 126%. For the same compound, the “Result (%) (transfection efficiency as percentage of Lipofectamine efficiency)” value (Huh7 cells [4]; [13]) was 169%.
For “Butanediyl-1,4-bis(decyl dimethyl-ammonium bromide) [10-4-10]”, the “Results (%) HeLaS3 (transfection efficiency as percentage of Lipofectamine efficiency)” value (HeLaS3 cells [1]; [6]) was 200%, the “Results (%) HeLaS3 (transfection efficiency as percentage of Lipofectamine efficiency)” value (HeLaS3 cells [1]; [7]) was 257% and the “Results (%) HeLaS3 (transfection efficiency as percentage of Lipofectamine efficiency)” value (HeLaS3 cells [1]; [8]) was 200%. The “Results (%) HeLaS3 (transfection efficiency as percentage of Lipofectamine efficiency)” value (HeLaS3 cells [1]; [9]) was 123%, the “Results (%) Huh7 (transfection efficiency as percentage of Lipofectamine efficiency)” value (Huh7 cells [2]; [6]) was 76% and the “Results (%) Huh7 (transfection efficiency as percentage of Lipofectamine efficiency)” value (Huh7 cells [2]; [7]) was 62%. The “Results (%) Huh7 (transfection efficiency as percentage of Lipofectamine efficiency)” value (Huh7 cells [2]; [8]) was 54% and the “Results (%) Huh7 (transfection efficiency as percentage of Lipofectamine efficiency)” value (Huh7 cells [2]; [9]) was 34%.

From US6733777B2, “Cationic reagents of transfection” (Qiagen GmbH, priority 1996, dated 2004)
